# How the values were obtained:
# Type in all cases: functional, cell-based
# MCF7 = experiment: Cytotoxicity against human MCF7 cells assessed as decrease in cell viability after 4 days by MTT assay; conditions: MCF7, 96 h
# SMMC-7721 = experiment: Cytotoxicity against human SMMC7721 cells assessed as decrease in cell viability after 4 days by MTT assay; conditions: SMMC-7721, 96 h
# A549 = experiment: Cytotoxicity against human A549 cells assessed as decrease in cell viability after 4 days by MTT assay; conditions: A549, 96 h
# HL-60 = experiment: Cytotoxicity against human HL60 cells assessed as decrease in cell viability after 4 days by MTT assay; conditions: HL-60, 96 h
# SW480 = experiment: Cytotoxicity against human SW480 cells assessed as decrease in cell viability after 4 days by MTT assay; conditions: SW480, 96 h
Compound,IC50 (MCF7) [µM],IC50 (SMMC-7721) [µM],IC50 (A549) [µM],IC50 (HL-60) [µM],IC50 (SW480) [µM]
C=C1C[C@]23C[C@@]1(O)CC[C@H]2c1ccc(O)c(C)c1[C@@H]3Cn1cc(-c2ccccn2)nn1,> 20,> 20,> 20,> 20,> 20
CC(=O)O[C@H]1C(=O)[C@@]2(C)[C@H]([C@H](OC(=O)c3ccccc3)[C@]3(O)C[C@H](OC(=O)[C@H](O)[C@@H](NC(=O)c4ccccc4)c4ccccc4)C(C)=C1C3(C)C)[C@]1(OC(C)=O)CO[C@@H]1C[C@@H]2O [PACLITAXEL],< 0.008,< 0.008,< 0.008,< 0.008,< 0.008
C=C1C[C@]23C[C@@]1(O)CC[C@H]2c1ccc(OS(=O)(=O)c2ccc(C)cc2)c(C)c1[C@@H]3Cn1cc(-c2ccc(Cl)cc2)nn1,> 20,> 20,> 20,> 20,> 20
C=C1C[C@]23C[C@@]1(O)CC[C@H]2c1cc(Br)c(O)c(C)c1[C@@H]3Cn1cc(-c2ccccc2)nn1,> 20,> 20,> 20,> 20,> 20
C=C1C[C@]23C[C@@]1(O)CC[C@H]2c1ccc(O)c(C)c1[C@@H]3Cn1cc(-c2ccc(F)cc2)nn1,> 20,> 20,> 20,> 20,> 20
Cc1c(O)ccc2c1[C@H](Cn1cc(-c3ccccn3)nn1)[C@@]13CC(=O)[C@@](C)(CC[C@@H]21)C3,> 20,> 20,> 20,> 20,> 20
C=C1C[C@]23C[C@@]1(O)CC[C@H]2c1ccc(OS(=O)(=O)c2ccc(C)cc2)c(C)c1[C@@H]3Cn1cc(-c2ccccn2)nn1,> 20,> 20,> 20,> 20,> 20
Cc1ccc(S(=O)(=O)Oc2ccc3c(c2C)[C@H](Cn2cc(-c4ccccc4)nn2)[C@@]24CC(=O)[C@@](C)(CC[C@@H]32)C4)cc1,> 20,> 20,> 20,> 20,> 20
C=C1C[C@]23C[C@@]1(O)CC[C@H]2c1ccc(O)c(C)c1[C@@H]3Cn1cc(-c2ccc(Br)cc2)nn1,> 20,> 20,> 20,> 20,> 20
C=C1C[C@]23C[C@@]1(O)CC[C@H]2c1ccc(O)c(C)c1[C@@H]3Cn1cc(-c2ccc(C(F)(F)F)cc2)nn1,12.4,> 20,10.4,8.95,> 20
C=C1C[C@]23C[C@@]1(O)CC[C@H]2c1ccc(O)c(C)c1[C@@H]3Cn1cc(-c2ccc(Cl)cc2)nn1,> 20,> 20,> 20,> 20,> 20
C=C1C[C@]23C[C@@]1(O)CC[C@@H]2c1cccc(C)c1[C@@H]3Cn1cc(-c2ccccn2)nn1,> 20,> 20,> 20,> 20,> 20
C=C1C[C@]23C[C@@]1(O)CC[C@@H]2c1cccc(C)c1[C@@H]3Cn1cc(-c2ccc(C(F)(F)F)cc2)nn1,> 20,> 20,> 20,> 20,> 20
C=C1C[C@]23C[C@@]1(O)CC[C@@H]2c1cccc(C)c1[C@@H]3Cn1cc(-c2ccc(C)cc2)nn1,> 20,> 20,> 20,> 20,> 20
C=C1C[C@]23C[C@@]1(O)CC[C@H]2c1ccc(OS(=O)(=O)c2ccc(C)cc2)c(C)c1[C@@H]3Cn1cc(-c2ccc(C(F)(F)F)cc2)nn1,> 20,> 20,> 20,> 20,> 20
Cc1c(O)ccc2c1[C@H](Cn1cc(-c3ccc(Cl)cc3)nn1)[C@@]13CC(=O)[C@@](C)(CC[C@@H]21)C3,> 20,> 20,> 20,> 20,> 20
Cc1ccc(S(=O)(=O)Oc2ccc3c(c2C)[C@H](Cn2cc(-c4ccc(C(F)(F)F)cc4)nn2)[C@@]24CC(=O)[C@@](C)(CC[C@@H]32)C4)cc1,> 20,> 20,> 20,> 20,> 20
Cc1ccc(-c2cn(C[C@H]3c4c(ccc(OS(=O)(=O)c5ccc(C)cc5)c4C)[C@@H]4CC[C@@]5(C)C[C@]43CC5=O)nn2)cc1,> 20,> 20,> 20,> 20,> 20
C=C1C[C@]23C[C@@]1(O)CC[C@H]2c1cc(Br)c(O)c(C)c1[C@@H]3Cn1cc(-c2ccc(F)cc2)nn1,19.2,> 20,17.9,6.6,> 20
C=C1C[C@]23C[C@@]1(O)CC[C@@H]2c1cccc(C)c1[C@@H]3Cn1cc(-c2ccc(OC)cc2)nn1,> 20,> 20,> 20,> 20,> 20
Cc1ccc(S(=O)(=O)Oc2ccc3c(c2C)[C@H](Cn2cc(-c4ccc(F)cc4)nn2)[C@@]24CC(=O)[C@@](C)(CC[C@@H]32)C4)cc1,> 20,> 20,> 20,> 20,> 20
C=C1C[C@]23C[C@@]1(O)CC[C@H]2c1ccc(OS(=O)(=O)c2ccc(C)cc2)c(C)c1[C@@H]3Cn1cc(-c2ccccc2)nn1,> 20,> 20,> 20,> 20,> 20
Cc1ccc(S(=O)(=O)Oc2ccc3c(c2C)[C@H](Cn2cc(-c4ccc(Br)cc4)nn2)[C@@]24CC(=O)[C@@](C)(CC[C@@H]32)C4)cc1,> 20,> 20,> 20,> 20,> 20
C=C1C[C@]23C[C@@]1(O)CC[C@@H]2c1cccc(C)c1[C@@H]3Cn1cc(-c2ccc(Cl)cc2)nn1,> 20,> 20,> 20,> 20,> 20
C=C1C[C@]23C[C@@]1(O)CC[C@H]2c1ccc(O)c(C)c1[C@@H]3Cn1cc(-c2ccc(OC)cc2)nn1,> 20,> 20,> 20,> 20,> 20
C=C1C[C@]23C[C@@]1(O)CC[C@H]2c1cc(Br)c(O)c(C)c1[C@@H]3Cn1cc(-c2ccc(C(F)(F)F)cc2)nn1,8.1,12.8,9.28,7.38,15.2
C=C1C[C@]23C[C@@]1(O)CC[C@H]2c1ccc(O)c(C)c1[C@@H]3Cn1cc(-c2ccc(C)cc2)nn1,> 20,> 20,> 20,> 20,> 20
Cc1c(O)ccc2c1[C@H](Cn1cc(-c3ccccc3)nn1)[C@@]13CC(=O)[C@@](C)(CC[C@@H]21)C3,> 20,> 20,> 20,> 20,> 20
COc1ccc(-c2cn(C[C@H]3c4c(ccc(OS(=O)(=O)c5ccc(C)cc5)c4C)[C@@H]4CC[C@@]5(C)C[C@]43CC5=O)nn2)cc1,> 20,> 20,> 20,> 20,> 20
